Assay results as given in patent publication US20140148368A1, “DRILLING FLUIDS AND DRILLING FLUID ADDITIVES FOR TREATMENT OF BITUMEN IN WELLBORE CUTTINGS” (Marquis Alliance Energy Group Inc., priority 2012, published 2014).

Test: Test Program #1: solubility of dodecanedioic acid powder in bitumen wafer
Type: physicochemical
Conditions: ambient temperature, 3 days
Source text: The solubility of dodecanedioic acid powder in bitumen was proven in laboratory experiments in which a 30-gram bitumen core sample was compressed at 1,000 pounds per square inch using a compactor, to make bitumen wafers having a diameter of 2.75 cm and a depth (thickness) of 1.8 cm. The bitumen wafer was rolled over carefully in a container with a sufficient quantity of dodecanedioic acid powder. The surface of bitumen wafer was covered with a thin layer of the dodecanedioic acid powder, and the color of the bitumen turned from black to white.

## O=C(O)CCCCCCCCCCC(=O)O [dodecanedioic acid]
  solubility of powder in bitumen (visual inspection of powder-covered wafer): all of the white dodecanedioic acid powder had disappeared
